Target: T1, human B1 receptor (Homo sapiens, UniProt P46663)
T1 construct: expressed in transfected cells
T1 sequence (P46663 1-353): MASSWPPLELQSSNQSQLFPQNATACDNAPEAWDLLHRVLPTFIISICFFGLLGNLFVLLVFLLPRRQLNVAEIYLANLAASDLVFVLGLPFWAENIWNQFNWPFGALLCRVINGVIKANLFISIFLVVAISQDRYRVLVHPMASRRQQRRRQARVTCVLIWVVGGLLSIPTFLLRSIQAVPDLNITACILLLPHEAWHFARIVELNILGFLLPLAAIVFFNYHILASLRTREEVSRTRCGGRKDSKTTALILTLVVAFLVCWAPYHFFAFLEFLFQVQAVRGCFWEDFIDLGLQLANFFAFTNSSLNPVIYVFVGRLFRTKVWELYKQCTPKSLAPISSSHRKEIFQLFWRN
Experiment: In vitro assay of human B1 receptor function using calcium flux (aequorin luminescence)
Type: cell-based
Conditions: CHO D-/hB1/Aequorin cells, agonist 20 nM des-Arg10-Kallidin (EC80); read-out: binding IC50's to hB1 receptor function
Procedure: Activation of the Gq linked B1 receptor results in an increase in intracellular calcium. […] Aequorin is a 21-kDa photoprotein that forms a bioluminescent complex when linked to the chromophore cofactor coelenterazine.
Following coelenterazine incubation, an automated flash-luminometer platform was used to dispense the B1 antagonist compounds (dissolved in DMSO and diluted with buffer to the desired concentration (final DMSO concentration <1% DMSO)) to the cell plate, a CCD camera situated underneath the cell plate took 12 images of the cell plate at 5 second intervals to determine if there was any agonist activity with the compounds. The hB1 agonist, des-Arg10-Kallidin, was added to the cell plate and another 12 images were recorded to determine the IC50 of the antagonist(s).

| Structure (SMILES) | IC50 [nM] |
| --- | --- |
| O=C(C[C@@H](NS(=O)(=O)c1cccc(C(F)(F)F)c1)c1ccc(F)cc1)N[C@@H]1CCOc2cc(CN3CCCC3)ccc21 [ct, 3-(4-Fluoro-phenyl)-N-(7-pyrrolidin-1-ylmethyl-chroman-4-yl)-3-(3-trifluoromethyl-benzenesulfonylamino)-propionamide] | < 10 |
| CC(C)(C)NCc1ccc2c(c1)CCC[C@H]2NC(=O)C[C@@H](NS(=O)(=O)c1cccc(C(F)(F)F)c1)c1cccc([N+](=O)[O-])c1 [cx, N-[6-(tert-Butylamino-methyl)-1,2,3,4-tetrahydro-naphthalen-1-yl]-3-(3-nitro-phenyl)-3-(3-trifluoromethyl-benzenesulfonylamino)-propionamide] | < 10 |
| CC(C)(C)NCc1ccc2c(c1)CCC[C@H]2NC(=O)C[C@@H](NS(=O)(=O)c1cccc(C(F)(F)F)c1)c1cccc(C#N)c1 [cy, N-[6-(tert-Butylamino-methyl)-1,2,3,4-tetrahydro-naphthalen-1-yl]-3-(3-cyano-phenyl)-3-(3-trifluoromethyl-benzenesulfonylamino)-propionamide] | < 10 |
| CC(C)(C)c1ccc(S(=O)(=O)N[C@H](CC(=O)N[C@@H]2CCCc3cc(CNC4CCC4)ccc32)c2ccc(F)cc2)cc1 [de, 3-(4-tert-Butyl-benzenesulfonylamino)-N-(6-cyclobutylaminomethyl-1,2,3,4-tetrahydro-naphthalen-1-yl)-3-(4-fluoro-phenyl)-propionamide] | < 10 |
| CC(C)(C)c1ccc(S(=O)(=O)N[C@H](CC(=O)N[C@@H]2CCCc3cc(CN4CCCCC4)ccc32)c2ccc(F)cc2)cc1 [dh, 3-(4-tert-Butyl-benzenesulfonylamino)-3-(4-fluoro-phenyl)-N-(6-piperidin-1-ylmethyl-1,2,3,4-tetrahydro-naphthalen-1-yl)-propionamide] | < 10 |
| CC(C)CNCc1ccc2c(c1)CCC[C@H]2NC(=O)C[C@@H](NS(=O)(=O)c1ccc(C(C)(C)C)cc1)c1ccc(F)cc1 [dj, 3-(4-tert-Butyl-benzenesulfonylamino)-3-(4-fluoro-phenyl)-N-[6-(isobutylamino-methyl)-1,2,3,4-tetrahydro-naphthalen-1-yl]-propionamide] | < 10 |
| CC(C)(C)NCc1ccc2c(c1)CCC[C@H]2NC(=O)C[C@@H](NS(=O)(=O)c1ccc(C(C)(C)C)cc1)c1ccc(F)cc1 [do, N-[6-(tert-Butylamino-methyl)-1,2,3,4-tetrahydro-naphthalen-1-yl]-3-(4-tert-butyl-benzenesulfonylamino)-3-(4-fluoro-phenyl)-propionamide] | < 10 |
| O=C(C[C@@H](NS(=O)(=O)c1cccc(C(F)(F)F)c1)c1cccc(F)c1)N[C@@H]1CCCc2cc(CN3CCCCC3)ccc21 [dq, 3-(3-Fluoro-phenyl)-N-(6-piperidin-1-ylmethyl-1,2,3,4-tetrahydro-naphthalen-1-yl)-3-(3-trifluoromethyl-benzenesulfonylamino)-propionamide] | < 10 |
| O=C(C[C@@H](NS(=O)(=O)c1ccc(Cl)c(Cl)c1)c1cccc(F)c1)N[C@@H]1CCCc2cc(CNC3CCCC3)ccc21 [dx, N-(6-Cyclopentylaminomethyl-1,2,3,4-tetrahydro-naphthalen-1-yl)-3-(3,4-dichloro-benzenesulfonylamino)-3-(3-fluoro-phenyl)-propionamide] | < 10 |
| O=C(C[C@@H](NS(=O)(=O)c1cccc(C(F)(F)F)c1)c1ccc(F)cc1)N[C@@H]1CCCc2cc(CN3CCC(F)CC3)ccc21 [eb, 3-(4-Fluoro-phenyl)-N-[6-(4-fluoro-piperidin-1-ylmethyl)-1,2,3,4-tetrahydro-naphthalen-1-yl]-3-(3-trifluoromethyl-benzenesulfonylamino)-propionamide] | < 10 |
| O=C(C[C@@H](NS(=O)(=O)c1ccc(Cl)c(Cl)c1)c1cccc(Cl)c1)N[C@@H]1CCCc2cc(CN3CCCCC3)ccc21 [ed, 3-(3-Chloro-phenyl)-3-(3,4-dichloro-benzenesulfonylamino)-N-(6-piperidin-1-ylmethyl-1,2,3,4-tetrahydro-naphthalen-1-yl)-propionamide] | < 10 |
| CC(C)(C)NCc1ccc2c(c1)OCC[C@H]2NC(=O)C[C@@H](NS(=O)(=O)c1cc(C(F)(F)F)ccc1Cl)c1ccc(F)cc1 [ej, N-[7-(tert-Butylamino-methyl)-chroman-4-yl]-3-(2-chloro-5-trifluoromethyl-benzenesulfonylamino)-3-(4-fluoro-phenyl)-propionamide] | < 10 |
| CC(C)(C)NCc1ccc2c(c1)CCC[C@H]2NC(=O)C[C@H](NS(=O)(=O)c1cccc(C(F)(F)F)c1)c1ccc([N+](=O)[O-])cc1 [em, N-[6-(tert-Butylamino-methyl)-1,2,3,4-tetrahydro-naphthalen-1-yl]-3-(4-nitro-phenyl)-3-(3-trifluoromethyl-benzenesulfonylamino)-propionamide] | < 10 |
| O=C(CC(NS(=O)(=O)c1cccc(C(F)(F)F)c1)c1ccc(Cl)cc1)N[C@@H]1CCCc2cc(CN3CCCCC3)ccc21 (some centres unmarked) [ex, 3-(4-Chloro-phenyl)-N-(6-piperidin-1-ylmethyl-1,2,3,4-tetrahydro-naphthalen-1-yl)-3-(3-trifluoromethyl-benzenesulfonylamino)-propionamide] | < 10 |
| O=C(CC(NS(=O)(=O)c1cccc(C(F)(F)F)c1)c1cc(Cl)cc(Cl)c1)N[C@@H]1CCCc2cc(CN3CCCCC3)ccc21 (some centres unmarked) [fb, 3-(3,5-Dichloro-phenyl)-N-(6-piperidin-1-ylmethyl-1,2,3,4-tetrahydro-naphthalen-1-yl)-3-(3-trifluoromethyl-benzenesulfonylamino)-propionamide] | < 10 |
| O=C(CC(NS(=O)(=O)c1cccc(C(F)(F)F)c1)c1ccccc1F)N[C@@H]1CCCc2cc(CN3CCCCC3)ccc21 (some centres unmarked) [fg, 3-(2-Fluoro-phenyl)-N-(6-piperidin-1-ylmethyl-1,2,3,4-tetrahydro-naphthalen-1-yl)-3-(3-trifluoromethyl-benzenesulfonylamino)-propionamide] | < 10 |
| O=C(CC(NS(=O)(=O)c1cccc(C(F)(F)F)c1)c1ccc(F)cc1)N[C@@H]1CCCc2cc(CN3CCCCC3)ccc21 (some centres unmarked) [fh, 3-(4-Fluoro-phenyl)-N-(6-piperidin-1-ylmethyl-1,2,3,4-tetrahydro-naphthalen-1-yl)-3-(3-trifluoromethyl-benzenesulfonylamino)-propionamide] | < 10 |
| O=C(C[C@@H](NS(=O)(=O)c1cccc(C(F)(F)F)c1)c1ccc(F)cc1)N[C@@H]1CCCc2cc(CNC3CCCC3)ccc21 [n, (3R)-N-((1R)-6-((cyclopentylamino)methyl)-1,2,3,4-tetrahydro-1-naphthalenyl)-3-(4-fluorophenyl)-3-(((3-(trifluoromethyl)phenyl)sulfonyl)-amino)propanamide] | < 10 |
| O=C(C[C@@H](NS(=O)(=O)c1cccc(C(F)(F)F)c1)c1ccc(F)cc1)N[C@@H]1CCCc2cc(CN3CCCC3)ccc21 [o, (3R)-3-(4-fluorophenyl)-N-((1R)-6-(1-pyrrolidinylmethyl)-1,2,3,4-tetrahydro-1-naphthalenyl)-3-(((3-(trifluoromethyl)phenyl)sulfonyl)-amino)propanamide] | < 10 |
| O=C(C[C@@H](NS(=O)(=O)c1cccc(C(F)(F)F)c1)c1ccccc1)N[C@@H]1CCCc2cc(CN3CCC(F)(F)CC3)ccc21 [t, (3R)-N-((1R)-6-((4,4-difluoro-1-piperidinyl)methyl)-1,2,3,4-tetrahydro-1-naphthalenyl)-3-phenyl-3-(((3-(trifluoromethyl)phenyl)-sulfonyl)amino)propanamide] | < 10 |

Source: patent US7425631B2 (Amgen Inc., priority 2003, dated 2008)
